Reference: ChEMBL document CHEMBL1151840, “Synthetic oligoribonucleotides containing arabinonucleotides act as agonists of TLR7 and 8” (Bioorg Med Chem Lett, 2009)
Active and inactive are the calls of the source. The calls are words filed in the database; no cut-off is given here.

What was measured:
[1] = species on record: Homo sapiens; assay: Stimulation of immune response in human pDC assessed as induction of MIP1alpha production at 150 ug/ml after 24 hrs; type: functional
[2] = molecular target: T1, Toll-like receptor 8 (Homo sapiens) (UniProt Q9NR97); assay: Agonist activity at human TLR8 expressed in HEK293XL cells assessed as NF-kappaB activation after 18 hrs; type: functional, cell-based
T1 sequence (whole entry): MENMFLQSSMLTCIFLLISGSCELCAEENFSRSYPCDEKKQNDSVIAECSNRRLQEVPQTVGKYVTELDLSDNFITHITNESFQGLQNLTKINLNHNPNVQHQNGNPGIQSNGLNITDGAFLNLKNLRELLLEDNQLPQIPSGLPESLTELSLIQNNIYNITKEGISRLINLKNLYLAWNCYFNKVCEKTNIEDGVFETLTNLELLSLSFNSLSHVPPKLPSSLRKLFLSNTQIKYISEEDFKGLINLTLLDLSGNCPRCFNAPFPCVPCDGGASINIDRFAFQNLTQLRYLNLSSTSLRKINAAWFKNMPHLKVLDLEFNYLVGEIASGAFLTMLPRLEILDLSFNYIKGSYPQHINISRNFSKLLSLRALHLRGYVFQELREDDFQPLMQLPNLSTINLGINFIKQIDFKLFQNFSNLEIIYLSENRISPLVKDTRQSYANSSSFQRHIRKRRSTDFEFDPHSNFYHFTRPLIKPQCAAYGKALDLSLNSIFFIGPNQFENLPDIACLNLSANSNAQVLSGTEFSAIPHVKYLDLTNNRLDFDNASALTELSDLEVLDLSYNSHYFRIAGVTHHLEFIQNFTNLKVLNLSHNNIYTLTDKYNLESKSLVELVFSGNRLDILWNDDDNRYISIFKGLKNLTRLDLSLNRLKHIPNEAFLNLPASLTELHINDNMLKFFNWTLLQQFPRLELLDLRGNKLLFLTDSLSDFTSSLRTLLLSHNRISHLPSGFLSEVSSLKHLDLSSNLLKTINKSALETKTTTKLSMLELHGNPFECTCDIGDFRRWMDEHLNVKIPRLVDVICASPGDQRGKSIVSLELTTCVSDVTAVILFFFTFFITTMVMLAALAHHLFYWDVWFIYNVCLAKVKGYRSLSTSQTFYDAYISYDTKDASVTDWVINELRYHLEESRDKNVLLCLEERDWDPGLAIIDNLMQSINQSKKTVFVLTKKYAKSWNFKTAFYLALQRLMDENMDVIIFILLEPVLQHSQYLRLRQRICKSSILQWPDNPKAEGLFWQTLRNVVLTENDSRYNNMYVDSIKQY

[3] = test system: PBMC; assay: Stimulation of immune response in human PBMC assessed as induction of RANTES production at 150 ug/ml after 24 hrs; type: functional, cell-based
[4] = species on record: Homo sapiens; assay: Stimulation of immune response in human pDC assessed as induction of IFNalpha production at 150 ug/ml after 24 hrs; type: functional
[5] = test system: PBMC; assay: Stimulation of immune response in human PBMC assessed as induction of IL8 production at 150 ug/ml after 24 hrs; type: functional, cell-based
[6] = test system: PBMC; assay: Stimulation of immune response in human PBMC assessed as induction of IL2R level at 150 ug/ml after 24 hrs; type: functional, cell-based
[7] = species on record: Homo sapiens; assay: Stimulation of immune response in human pDC assessed as induction of TNFalpha production at 150 ug/ml after 24 hrs; type: functional
[8] = Stability in human serum assessed as full-length compound remaining after 10 mins by anion-exchange HPLC; type: ADME, cell-free; conditions: read-out: Stability
[9] = test system: PBMC; assay: Stimulation of immune response in human PBMC assessed as induction of MCP1 production at 150 ug/ml after 24 hrs; type: functional, cell-based
[10] = species on record: Homo sapiens; assay: Stimulation of immune response in human pDC assessed as induction of MIP1beta production at 150 ug/ml after 24 hrs; type: functional
[11] = test system: PBMC; assay: Stimulation of immune response in human PBMC assessed as induction of MIP1alpha production at 150 ug/ml after 24 hrs; type: functional, cell-based
[12] = test system: PBMC; assay: Stimulation of immune response in human PBMC assessed as induction of IL12 production at 150 ug/ml after 24 hrs; type: functional, cell-based
[13] = test system: PBMC; assay: Stimulation of immune response in human PBMC assessed as induction of IL10 production at 150 ug/ml after 24 hrs; type: functional, cell-based
[14] = test system: PBMC; assay: Stimulation of immune response in human PBMC assessed as induction of TNFalpha production at 150 ug/ml after 24 hrs; type: functional, cell-based
[15] = molecular target: T2, Toll-like receptor 7 (Homo sapiens) (UniProt Q9NYK1); assay: Agonist activity at human TLR7 expressed in HEK293XL cells assessed as NF-kappaB activation after 18 hrs; type: functional, cell-based
T2 sequence (whole entry): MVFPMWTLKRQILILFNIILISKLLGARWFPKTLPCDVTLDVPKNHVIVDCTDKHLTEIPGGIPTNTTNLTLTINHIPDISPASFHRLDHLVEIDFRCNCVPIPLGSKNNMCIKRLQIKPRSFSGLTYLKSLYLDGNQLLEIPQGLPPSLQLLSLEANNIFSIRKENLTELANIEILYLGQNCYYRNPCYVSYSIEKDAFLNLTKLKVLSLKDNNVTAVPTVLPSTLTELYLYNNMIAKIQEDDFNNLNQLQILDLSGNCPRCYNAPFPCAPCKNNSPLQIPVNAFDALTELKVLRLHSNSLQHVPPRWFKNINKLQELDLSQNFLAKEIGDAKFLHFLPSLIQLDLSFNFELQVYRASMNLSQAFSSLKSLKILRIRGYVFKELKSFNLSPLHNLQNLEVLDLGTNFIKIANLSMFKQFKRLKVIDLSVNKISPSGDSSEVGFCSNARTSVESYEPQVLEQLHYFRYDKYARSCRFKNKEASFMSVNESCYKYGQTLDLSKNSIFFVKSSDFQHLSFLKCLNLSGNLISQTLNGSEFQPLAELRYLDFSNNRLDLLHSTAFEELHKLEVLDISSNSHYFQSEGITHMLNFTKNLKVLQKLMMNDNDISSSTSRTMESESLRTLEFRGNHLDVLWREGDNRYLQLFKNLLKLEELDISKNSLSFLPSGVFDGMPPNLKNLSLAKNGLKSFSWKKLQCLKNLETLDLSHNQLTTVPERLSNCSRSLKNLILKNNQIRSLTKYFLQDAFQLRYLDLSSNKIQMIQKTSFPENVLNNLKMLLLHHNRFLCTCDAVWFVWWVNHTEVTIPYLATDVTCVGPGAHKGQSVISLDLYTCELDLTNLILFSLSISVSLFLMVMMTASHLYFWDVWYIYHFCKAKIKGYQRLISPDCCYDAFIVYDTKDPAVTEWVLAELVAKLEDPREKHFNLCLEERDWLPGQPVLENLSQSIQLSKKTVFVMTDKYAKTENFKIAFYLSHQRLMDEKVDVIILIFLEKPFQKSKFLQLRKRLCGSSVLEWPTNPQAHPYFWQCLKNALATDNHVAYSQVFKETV

[16] = species on record: Homo sapiens; assay: Stimulation of immune response in human pDC assessed as induction of IL12 production at 150 ug/ml after 24 hrs; type: functional
[17] = test system: PBMC; assay: Stimulation of immune response in human PBMC assessed as induction of MIP1beta production at 150 ug/ml after 24 hrs; type: functional, cell-based
[18] = test system: Mus musculus; assay: Stimulation of immune response in C57BL/6 mouse assessed as induction of serum IL12 production at 50 mg/kg, sc after 2 hrs by luminex multiplex assay; type: functional, organism-based; parameters: dose 50 mg/kg
[19] = test system: PBMC; assay: Stimulation of immune response in human PBMC assessed as induction of IFNalpha production at 150 ug/ml after 24 hrs; type: functional, cell-based
[20] = species on record: Homo sapiens; assay: Stimulation of immune response in human pDC assessed as induction of IFN-gamma production at 150 ug/ml after 24 hrs; type: functional
[21] = test system: PBMC; assay: Stimulation of immune response in human PBMC assessed as induction of IFN-gamma production at 150 ug/ml after 24 hrs; type: functional, cell-based
[22] = test system: PBMC; assay: Stimulation of immune response in human PBMC assessed as induction of IL1-beta production at 150 ug/ml after 24 hrs; type: functional, cell-based

SMILES | Activity [1] | Activity [2] | Activity [3] | Activity [4] | Activity [5] | Activity [6] | Activity [7] | remaining at 10 min [8] [%] | Activity [9] | Activity [10] | Activity [11] | Activity [12] | Activity [13] | Activity [14] | Activity [15] | Activity [16] | Activity [17] | Activity [18] | Activity [19] | Activity [20] | other results
Nc1ccn([C@@H]2O[C@H](COP(O)(=S)O[C@H]3[C@@H](O)[C@H](n4cnc5c(=O)[nH]c(N)nc54)O[C@@H]3COP(O)(=S)O[C@H]3[C@@H](O)[C@H](n4ccc(=O)[nH]c4=O)O[C@@H]3CO)[C@@H](OP(O)(=S)OC[C@H]3O[C@@H](n4ccc(=O)[nH]c4=O)[C@H](O)[C@@H]3OP(O)(=S)OC[C@H]3O[C@@H](n4cnc5c(=O)[nH]c(N)nc54)[C@H](O)[C@@H]3OP(O)(=S)OC[C@H]3O[C@@H](n4ccc(N)nc4=O)[C@H](O)[C@@H]3OP(O)(=S)OC[C@H]3O[C@@H](n4ccc(=O)[nH]c4=O)[C@H](O)[C@@H]3OP(O)(=S)OC[C@H]3O[C@@H](n4ccc(=O)[nH]c4=O)[C@H](O)[C@@H]3OP(O)(=S)OC[C@H]3O[C@@H](n4cnc5c(=O)[nH]c(N)nc54)[C@H](O)[C@@H]3OP(O)(=S)OC[C@H]3O[C@@H](n4ccc(=O)[nH]c4=O)[C@H](O)[C@@H]3OP(O)(=S)OC[C@H]3O[C@@H](n4cnc5c(=O)[nH]c(N)nc54)[C@H](O)[C@@H]3OP(O)(=S)OCC(O)COP(O)(=S)O[C@H]3[C@@H](O)[C@H](n4cnc5c(=O)[nH]c(N)nc54)O[C@@H]3COP(O)(=S)O[C@H]3[C@@H](O)[C@H](n4ccc(=O)[nH]c4=O)O[C@@H]3COP(O)(=S)O[C@H]3[C@@H](O)[C@H](n4cnc5c(=O)[nH]c(N)nc54)O[C@@H]3COP(O)(=S)O[C@H]3[C@@H](O)[C@H](n4ccc(=O)[nH]c4=O)O[C@@H]3COP(O)(=S)O[C@H]3[C@@H](O)[C@H](n4ccc(=O)[nH]c4=O)O[C@@H]3COP(O)(=S)O[C@H]3[C@@H](O)[C@H](n4ccc(N)nc4=O)O[C@@H]3COP(O)(=S)O[C@H]3[C@@H](O)[C@H](n4cnc5c(=O)[nH]c(N)nc54)O[C@@H]3COP(O)(=S)O[C@H]3[C@@H](O)[C@H](n4ccc(=O)[nH]c4=O)O[C@@H]3COP(O)(=S)O[C@H]3[C@@H](O)[C@H](n4ccc(N)nc4=O)O[C@@H]3COP(O)(=S)O[C@H]3[C@@H](O)[C@H](n4cnc5c(=O)[nH]c(N)nc54)O[C@@H]3COP(O)(=S)O[C@H]3[C@@H](O)[C@H](n4ccc(=O)[nH]c4=O)O[C@@H]3CO)[C@H]2O)c(=O)n1 (some centres undefined) | Active | Dose-dependent effect | Active | inactive | Active | Active | Active | 75 | Active | Active | Active | Active | Active | Active | inactive | Active | Active | inactive | Active | Active | Activity [21]: Active; Activity [22]: Active
Nc1ncnc2c1ncn2[C@@H]1O[C@H](CO)[C@@H](OP(=O)(S)OC[C@H]2O[C@@H](n3cnc4c(N)ncnc43)[C@H](O)[C@@H]2OP(=O)(S)OC[C@H]2O[C@@H](n3cnc4c(N)ncnc43)[C@H](O)[C@@H]2OP(=O)(S)OC[C@H]2O[C@@H](n3cnc4c(N)ncnc43)[C@H](O)[C@@H]2OP(=O)(S)OC[C@H]2O[C@@H](n3cnc4c(N)ncnc43)[C@H](O)[C@@H]2OP(=O)(S)OC[C@H]2O[C@@H](n3cnc4c(N)ncnc43)[C@H](O)[C@@H]2OP(=O)(S)OC[C@H]2O[C@@H](n3cnc4c(N)ncnc43)[C@H](O)[C@@H]2OP(=O)(S)OC[C@H]2O[C@@H](n3cnc4c(N)ncnc43)[C@H](O)[C@@H]2OP(=O)(S)OC[C@H]2O[C@@H](n3cnc4c(N)ncnc43)[C@H](O)[C@@H]2OP(=O)(S)OC[C@H]2O[C@@H](n3cnc4c(N)ncnc43)[C@H](O)[C@@H]2OP(=O)(S)OC[C@H]2O[C@@H](n3cnc4c(N)ncnc43)[C@H](O)[C@@H]2OP(=O)(S)OCC(O)COP(=O)(S)O[C@H]2[C@@H](O)[C@H](n3cnc4c(N)ncnc43)O[C@@H]2COP(=O)(S)O[C@H]2[C@@H](O)[C@H](n3cnc4c(N)ncnc43)O[C@@H]2COP(=O)(S)O[C@H]2[C@@H](O)[C@H](n3cnc4c(N)ncnc43)O[C@@H]2COP(=O)(S)O[C@H]2[C@@H](O)[C@H](n3cnc4c(N)ncnc43)O[C@@H]2COP(=O)(S)O[C@H]2[C@@H](O)[C@H](n3cnc4c(N)ncnc43)O[C@@H]2COP(=O)(S)O[C@H]2[C@@H](O)[C@H](n3cnc4c(N)ncnc43)O[C@@H]2COP(=O)(S)O[C@H]2[C@@H](O)[C@H](n3cnc4c(N)ncnc43)O[C@@H]2COP(=O)(S)O[C@H]2[C@@H](O)[C@H](n3cnc4c(N)ncnc43)O[C@@H]2COP(=O)(S)O[C@H]2[C@@H](O)[C@H](n3cnc4c(N)ncnc43)O[C@@H]2COP(=O)(S)O[C@H]2[C@@H](O)[C@H](n3cnc4c(N)ncnc43)O[C@@H]2COP(=O)(S)O[C@H]2[C@@H](O)[C@H](n3cnc4c(N)ncnc43)O[C@@H]2CO)[C@H]1O (some centres undefined) | inactive | inactive | inactive | inactive | inactive | inactive | inactive | 90 | inactive | inactive | inactive | inactive | inactive | inactive | inactive | inactive | inactive | inactive | inactive | inactive | Activity [21]: inactive; Activity [22]: inactive
